# How the values were obtained:
# [1] = test system: FLAG-RR12EE345L; experiment: capture and presentation of secreted FLAG leucine zipper by mutant blocking leucine zippers in C1498 cells; assay type: cell-based; details: FIG. 20
# Text: A series of mutations were made in the “g” residues of the blocking leucine zipper to reduce heterodimerization affinity between the capture leucine zipper and the linked blocking leucine zipper. The following six mutants were made: 1N mutant: E1R2EE345L (having the amino acid sequence set forth in SEQ ID NO: 98), 1M mutant: RR123E45L (having the amino acid sequence set forth in SEQ ID NO: 99), 2N mutant: EE12345L (having the amino acid sequence set forth in SEQ ID NO: 102), 2M mutant: RR1234E5L (having the amino acid sequence set forth in SEQ ID NO: 103), 3N mutant: EE12R3E45L (having the amino acid sequence set forth in SEQ ID NO: 106), and 3C mutant: RR12345L (having the amino acid sequence set forth in SEQ ID NO: 107).
# C1498 cells were co-transduced with the FLAG-RR12EE345L GFP vector and one of the six mutants as part of RR12EE345L linker EE12RR345L BFP vector constructs. […] Thus, mutating the […] leucine zipper at “g” position residues to include repulsive amino acid interactions can reduce the degree of blocking by the linked […]-based mutant leucine zipper.
# [2] = target: T1, iCaspase 9 (Homo sapiens, UniProt P55211, Q221R); experiment: activation of iCaspase 9 suicide gene by chemical inducer of dimerization in sorted dual-transduced T cells; assay type: cell-based, mouse
# T1 construct: […]; expressed in transfected cells
# Method: FIG. 5 depicts purification and testing of dual-transduced cells with iCaspase 9 and CD20-CAR. T cells comprising RR12EE345L-FLAG iCaspase 9 (vector 1) and RR12EE345L-linker-EE12RR345L-Thy1.1 CD20-CAR (vector 2) were incubated with EL4-CD19 and EL4-CD20 targets in the presence or absence of chemical inducer of dimerization (CID).
# IL-18 secretion was assessed by ELISA. Interferon gamma secretion was assessed by cytometric bead array.
# [3] = test system: CD20 mimotope; experiment: antibody plus complement depletion of double transduced C1498 cells; assay type: cell-based; details: RQR-RR12EE345L plus capture leucine zipper, in the presence of complement, FIG. 18
# Method: Next, C1498 cells were double transduced with capture leucine zippers as shown in FIG. 18 and a second vector encoding the tandem CD20 mimotope/CD34 leucine zipper tag (RQR-RR12EE345L). Subsequently, the cells were incubated with anti-CD20 antibody Rituximab or irrelevant antibody Cetuximab in the presence of complement.
# T1 sequence (P55211 with tags, fused parts or gaps Q221R): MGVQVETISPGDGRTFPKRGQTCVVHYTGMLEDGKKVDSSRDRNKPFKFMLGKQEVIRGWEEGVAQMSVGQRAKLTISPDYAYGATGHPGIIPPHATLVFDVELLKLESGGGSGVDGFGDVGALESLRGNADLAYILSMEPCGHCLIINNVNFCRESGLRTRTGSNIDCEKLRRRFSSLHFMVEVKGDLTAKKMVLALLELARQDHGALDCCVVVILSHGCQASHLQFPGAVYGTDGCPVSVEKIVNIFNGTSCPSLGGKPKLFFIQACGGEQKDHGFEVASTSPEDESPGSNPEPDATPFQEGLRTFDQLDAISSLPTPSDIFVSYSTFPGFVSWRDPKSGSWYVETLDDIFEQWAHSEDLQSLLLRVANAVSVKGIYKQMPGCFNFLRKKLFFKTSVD
# Sequence of FLAG-RR12EE345L (as listed by the source): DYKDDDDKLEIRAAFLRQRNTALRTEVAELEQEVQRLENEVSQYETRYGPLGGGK
# Sequence of CD20 mimotope (as listed by the source): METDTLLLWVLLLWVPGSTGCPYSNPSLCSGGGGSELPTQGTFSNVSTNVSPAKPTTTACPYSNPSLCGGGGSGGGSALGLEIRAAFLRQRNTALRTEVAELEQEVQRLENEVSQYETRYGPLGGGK
compound,measurement,setting,value
"3N mutant: blocking leucine zipper mutant, amino acid sequence SEQ ID NO: 106 (LEIEAAFLRQENTALRTRVAELEQEVQRLENEVSQYETRYGPLGGGK)",presentation of secreted leucine zipper,[1]; C1498 cells co-transduced with FLAG-RR12EE345L GFP vector,enhanced presentation of secreted leucine zipper
same,FLAG binding,[1]; double transduced and single-transduced capture-zipper-only C1498 cells,"increased FLAG binding in double transduced cells (intracellular pairing), but also in single-transduced capture leucine zipper-only cells (extracellular pairing)"
CC[C@H](C(=O)N1CCCC[C@H]1C(=O)O[C@H](CCc1ccc(OC)c(OC)c1)c1cccc(OCC(=O)NCC(CNC(=O)COc2cccc([C@@H](CCc3ccc(OC)c(OC)c3)OC(=O)[C@@H]3CCCCN3C(=O)[C@@H](CC)c3cc(OC)c(OC)c(OC)c3)c2)CN(C)C)c1)c1cc(OC)c(OC)c(OC)c1 [chemical inducer of dimerization],induction of T cell apoptosis,"[2]; T cells with iCaspase 9 on one vector and CD20-CAR on the other, FIG. 5",> 90%
same,cell death,"[2]; sorted cells with two vectors expressing CD19-CAR, CD20-CAR and iCaspase9, optionally IL-18, FIG. 6",about 90%
Rituximab,depletion of cells,[3],selective depletion of double transduced cells
